Laboratory results as given in patent US20070031815A1, “Screening method for identifying hsp90 modulators” (University of Liverpool, priority 2003, published 2007).
Where two headings read alike, the source gives them in different places.

Test system: yeast cells
Test: Entry of known Hsp90 inhibitors into yeast cells
Format: cell-based
Description: Yeast have many advantages in development of screening systems or biosensors-compared to mammalian cells they are robust; easy and cheap to grow; genetically stable; and represent a reduced health risk to workers (viral contamination of cell lines becomes an issue in low cost high throughput screening). […] However, yeast are not always permeable to compounds that would be able to enter mammalian cells. […] This problem has been overcome in the past by using yeast mutants that have enhanced sensitivity to toxic chemicals. These mutations are in genes described as Pleiotrophic Drug Resistance (PDR) or Multiple Drug Resistance (MDR) gene. One class of PDR genes are those affecting the ergosterol balance in the yeast membrane. Mammalian cells have cholesterol in the plasma membrane while yeast have ergosterol. Mutations in the gene ERG6 (ISE1) cause cells to become sensitive to a range of lipophilic drugs. Another class of mutations affect active drug uptake or efflux, for example mutations to the ATP dependent efflux pump PDR5 increase drug sensitivity. A combination of mutations from these different pathways further increases sensitivity. In addition to increasing permeability of the plasma membrane and reducing efflux better drug entry can also be brought about by changing the cell wall structure, this can also increase osmotic sensitivity, which facilitates release of proteins. Mutation of the GDP-mannose phosphorylase (SRB1) interferes with the glycosylation of cell wall proteins, this increases drug and osmotic sensitivity. Hsp90 itself is also involved in the maintenance of cell wall integrity via its functional interaction with Ste11. Ste11 is a MAPKKK that normally activates the MAPKK Pbs2 which in turn activates the Hog-1 transcriptional activator. Hog-1 activation modifies the cell wall in response to osmotic shock, disruption of Hog-1 causes drug and osmotic sensitivity. There are also dominant mutations which increase sensitivity to cytotoxic agents, such as ISE2 which increases sensitivity to a range of topoisomerase II inhibitors.

| SMILES | entry into yeast cells (yeast permeability) | entry into yeast cells |
| --- | --- | --- |
| C=CCNC1=C2C[C@@H](C)C[C@H](OC)[C@H](O)[C@@H](C)/C=C(\C)[C@H](OC(N)=O)[C@@H](OC)/C=C\C=C(/C)C(=O)NC(=CC1=O)C2=O [Compound 17-AAG, 17-allylamino demethoxy geldanamycin] | enter yeast cells easily | – |
| COC1=C2C[C@@H](C)C[C@H](OC)[C@H](O)[C@@H](C)/C=C(\C)[C@H](OC(N)=O)[C@@H](OC)/C=C\C=C(/C)C(=O)NC(=CC1=O)C2=O [GA, Geldanamycin] | enter yeast cells easily | – |
| CO[C@H]1[C@@H](OC)C[C@H](C)[C@@H](OC)C2=CC(=O)C=C(NC(=O)/C(C)=C/C=C\[C@H](OC)[C@@H](OC(N)=O)/C(C)=C/[C@@H]1C)C2=O [Herbimycin] | enter yeast cells easily | – |
| CO[C@H]1[C@@H](OC)C[C@H](C)[C@@H](OC)C2=CC(=O)C=C(NC(=O)/C(C)=C/C=C\[C@H](C)[C@@H](OC(N)=O)/C(C)=C/[C@@H]1C)C2=O [Macbecin, Macbecin I] | – | enter yeast cells easily |
| CO[C@@H]1[C@@H](OC(N)=O)[C@@H](O)[C@H](Oc2ccc3c(O)c(NC(=O)c4ccc(O)c(CC=C(C)C)c4)c(=O)oc3c2C)OC1(C)C [Novobiocin] | enter yeast cells easily | – |
| C[C@@H]1C[C@H]2O[C@@H]2/C=C\C=C\C(=O)Cc2c(Cl)c(O)cc(O)c2C(=O)O1 [Radicicol] | enter yeast cells easily | – |
